{
  "source": "paper PMC5844530",
  "about": "“Fosmetpantotenate (RE-024), a phosphopantothenate replacement therapy for pantothenate kinase-associated neurodegeneration: Mechanism of action and efficacy in nonclinical models” (PLoS ONE, 2018)",
  "key": {"in vitro": {"assay": "in vitro", "details": "pH 7.4, In Vitro Measured Papp"}, "liver and brain CoA": {"system": "liver and brain CoA", "assay": "Labeled experiments: incorporation of isotopically labeled fosmetpantotenate into CoA", "format": "in vivo, mouse", "details": "for Liver CoA (%) +4 AMU / Liver CoA (%) +6 AMU / Liver CoA (%) Unlabeled: 500 mg/kg PO", "source_text": "Fosmetpantotenate was labeled with three ^13C and one ^15N in the PA moiety and with one ^18O in the phosphate moiety, as indicated in Fig 10. The premise of this experiment is the following: if PPA incorporated into CoA originates from fosmetpantotenate metabolism, then all isotope labels (including the ^18O) will be retained in the CoA molecule, resulting in an increase in molecular weight of 6 atomic mass units (AMU) with respect to unlabeled CoA ([M+H]^+ = 774.3 vs 768.3, respectively; Fig 10, Path A). However, if fosmetpantotenate is hydrolyzed to PA, and PA is then re-phosphorylated by WT PanK to yield PPA, or if the ^18O is exchanged with water, then the ^18O would be lost in the process, resulting in a CoA molecule with a 4-AMU increase in molecular weight over unlabeled CoA ([M+H]^+ = 772.3 vs 768.3, respectively, […], Path B). CoA derived from endogenous PA/PPA will have the unchanged molecular weight ([M+H]^+ = 768.3).\nAnimal phase: C57BL6N mice, 8-week old and 19 to 21 g obtained from Charles River (Como, Italy) were used in these studies. One group of mice (N = 3 per time point) received a single oral dose of 500 mg/kg isotopically labeled fosmetpantotenate dissolved in 20% hydroxypropyl-β-cyclodextrin. Another set of mice (N = 8 per time point) received a direct administration of isotopically labeled fosmetpantotenate at 125 μg (25 mg/mL of aCSF containing 147 mM NaCl, 3.0 mM KCl, 1.2 mM CaCl2, and 1.2 mM MgCl2) via cannula into striatum. Brain, liver, and blood samples were collected at pre-dose, 6 h, 12 h (brain only), and 24 h, and were snap frozen in liquid nitrogen.\nTwo additional groups of mice (N = 6 per time point for each group) received 3 daily doses (8 am, 2 pm, and 8 pm to mimic an anticipated human dosing schedule) of isotopically labeled fosmetpantotenate at either 1.25 μg (0.625 mg/mL aCSF) or 12.5 μg (6.25 mg/mL aCSF) via ICV infusion cannula (2 μL), for up to 10 consecutive days. Brain (striatum) samples were collected at pre-dose, and at 12 h following the third dose on days 1, 3, 7, and 10, and were snap frozen in liquid nitrogen.\nSample processing: Brain (striatum) and liver tissues were homogenized in a Precellys homogenizer (Bertin technologies, Montigny-le-Bretonneux, France) with 3 volumes of water for each volume of tissue (1:4 dilution). Protein was precipitated by adding 500 μL methanol to 100 μL of homogenate (1:6 dilution), mixed well, and centrifuged. Blood cells (1 volume) were treated with 1:8 v:v water:methanol (1:10 dilution), mixed, and centrifuged. The supernatants (200 μL for brain and blood cells and 100 μL for liver) were dried under nitrogen, reconstituted with 100 μL ammonium acetate 10 mM (pH ~5), and injected (10 μL) into the LC for high resolution mass spectrometry (HRMS) analyses.\nCoA determination: An Acquity UPLC (Waters) system was used. Samples were chromatographed on a Luna C18 column (50 x 2.0 mm; 5 μm), with a 0.4 mL/min flow rate and a 10 μL injection volume. The mobile phases were (A), 10 mM ammonium acetate in water, pH 6.8 and (B) acetonitrile:2-propanol (9:1; v:v). The gradient was started with 2% (B) and was increased linearly to reach 20% (B) at 5 min; the gradient was ramped to reach 90% (B) at 5.1 min and kept isocratic at 90% (B) through 7.1 min.\nThe detector was a Waters QTOF Synapt mass spectrometer, with an electrospray ion source operating in the positive scanning mode acquiring in full scan mode (accuracy <5 ppm). The following exact masses were determined: 768.1230 for CoA, 772.1301 for CoA +4 AMU, and 774.1344 for CoA +6 AMU.\nThe CoA levels obtained by MS/MS analyses were corrected for ^18O isotopic incorporation. CoA levels were not adjusted for the 1% and 2% of ^12C and ^14N, respectively, in the labeled fosmetpantotenate. […]"}, "[1]": {"system": "porcine brain endothelial cell (PBEC) co-culture model"}},
  "data": [
    {"smiles": "Cn1c(=O)c2c(ncn2C)n(C)c1=O", "note": "[Caffeine]", "values": [
      {"measurement": "Papp at 1 h", "setting": "in vitro", "value": "34.3 ± 3.1", "unit": "×10⁻⁶ cm/s"}
    ]},
    {"smiles": "COC(=O)C(C)NP(=[18O])(OCC(C)(C)C(O)C(=O)[15NH][13CH2][13CH2][13C](=O)OC)Oc1ccccc1", "note": "(stereo not shown) [isotopically-labeled fosmetpantotenate]", "values": [
      {"measurement": "Brain CoA (%) +4 AMU", "setting": "liver and brain CoA; 1.25 μg ICV, dose day 3", "value": 0, "unit": "%"},
      {"measurement": "Brain CoA (%) +6 AMU", "setting": "liver and brain CoA; 1.25 μg ICV, dose day 3", "value": 0, "unit": "%"},
      {"measurement": "Brain CoA (%) Unlabeled", "setting": "liver and brain CoA; 1.25 μg ICV, dose day 3", "value": 100, "unit": "%"},
      {"measurement": "Brain CoA (%) +4 AMU", "setting": "liver and brain CoA; 1.25 μg ICV, dose day 7", "value": 5, "unit": "%"},
      {"measurement": "Brain CoA (%) +6 AMU", "setting": "liver and brain CoA; 1.25 μg ICV, dose day 7", "value": 4, "unit": "%"},
      {"measurement": "Brain CoA (%) Unlabeled", "setting": "liver and brain CoA; 1.25 μg ICV, dose day 7", "value": 91, "unit": "%"},
      {"measurement": "Brain CoA (%) +4 AMU", "setting": "liver and brain CoA; 1.25 μg ICV, dose day 10", "value": 8, "unit": "%"},
      {"measurement": "Brain CoA (%) +6 AMU", "setting": "liver and brain CoA; 1.25 μg ICV, dose day 10", "value": 6, "unit": "%"},
      {"measurement": "Brain CoA (%) Unlabeled", "setting": "liver and brain CoA; 1.25 μg ICV, dose day 10", "value": 86, "unit": "%"},
      {"measurement": "Brain CoA (%) +4 AMU", "setting": "liver and brain CoA; 12.5 μg ICV, dose day 3", "value": 8, "unit": "%"},
      {"measurement": "Brain CoA (%) +6 AMU", "setting": "liver and brain CoA; 12.5 μg ICV, dose day 3", "value": 15, "unit": "%"},
      {"measurement": "Brain CoA (%) Unlabeled", "setting": "liver and brain CoA; 12.5 μg ICV, dose day 3", "value": 77, "unit": "%"},
      {"measurement": "Brain CoA (%) +4 AMU", "setting": "liver and brain CoA; 12.5 μg ICV, dose day 7", "value": 14, "unit": "%"},
      {"measurement": "Brain CoA (%) +6 AMU", "setting": "liver and brain CoA; 12.5 μg ICV, dose day 7", "value": 27, "unit": "%"},
      {"measurement": "Brain CoA (%) Unlabeled", "setting": "liver and brain CoA; 12.5 μg ICV, dose day 7", "value": 59, "unit": "%"},
      {"measurement": "Brain CoA (%) +4 AMU", "setting": "liver and brain CoA; 12.5 μg ICV, dose day 10", "value": 16, "unit": "%"},
      {"measurement": "Brain CoA (%) +6 AMU", "setting": "liver and brain CoA; 12.5 μg ICV, dose day 10", "value": 28, "unit": "%"},
      {"measurement": "Brain CoA (%) Unlabeled", "setting": "liver and brain CoA; 12.5 μg ICV, dose day 10", "value": 56, "unit": "%"},
      {"measurement": "Brain CoA (%) +6 AMU", "setting": "liver and brain CoA; 12.5 μg ICV, dose day 10, listed as isotopically labeled-fosmetpantotenate", "value": "~ 30%"},
      {"measurement": "Brain CoA (%) +4 AMU", "setting": "liver and brain CoA; 125 μg intrastriatally, 6 h", "value": 2.8, "unit": "%"},
      {"measurement": "Brain CoA (%) +6 AMU", "setting": "liver and brain CoA; 125 μg intrastriatally, 6 h", "value": 36.2, "unit": "%"},
      {"measurement": "Brain CoA (%) Unlabeled", "setting": "liver and brain CoA; 125 μg intrastriatally, 6 h", "value": 61, "unit": "%"},
      {"measurement": "Brain CoA (%) +4 AMU", "setting": "liver and brain CoA; 125 μg intrastriatally, 12 h", "value": 3.6, "unit": "%"},
      {"measurement": "Brain CoA (%) +6 AMU", "setting": "liver and brain CoA; 125 μg intrastriatally, 12 h", "value": 46.4, "unit": "%"},
      {"measurement": "Brain CoA (%) Unlabeled", "setting": "liver and brain CoA; 125 μg intrastriatally, 12 h", "value": 50, "unit": "%"},
      {"measurement": "Brain CoA (%) +4 AMU", "setting": "liver and brain CoA; 125 μg intrastriatally, 24 h", "value": 4.3, "unit": "%"},
      {"measurement": "Brain CoA (%) +6 AMU", "setting": "liver and brain CoA; 125 μg intrastriatally, 24 h", "value": 50.7, "unit": "%"},
      {"measurement": "Brain CoA (%) Unlabeled", "setting": "liver and brain CoA; 125 μg intrastriatally, 24 h", "value": 45, "unit": "%"},
      {"measurement": "Brain CoA (%) +6 AMU", "setting": "liver and brain CoA; 125 μg intrastriatally, 24 h, listed as isotopically labeled-fosmetpantotenate", "value": "~ 50%"},
      {"measurement": "Liver CoA (%) +4 AMU", "setting": "liver and brain CoA; 6 h", "value": 1.4, "unit": "%"},
      {"measurement": "Liver CoA (%) +6 AMU", "setting": "liver and brain CoA; 6 h", "value": 40, "unit": "%"},
      {"measurement": "Liver CoA (%) Unlabeled", "setting": "liver and brain CoA; 6 h", "value": 58.6, "unit": "%"},
      {"measurement": "Liver CoA (%) +6 AMU", "setting": "liver and brain CoA; 6 h, listed as isotopically labeled-fosmetpantotenate", "value": "~ 40%"},
      {"measurement": "Liver CoA (%) +4 AMU", "setting": "liver and brain CoA; 24 h", "value": 8.4, "unit": "%"},
      {"measurement": "Liver CoA (%) +6 AMU", "setting": "liver and brain CoA; 24 h", "value": 34, "unit": "%"},
      {"measurement": "Liver CoA (%) Unlabeled", "setting": "liver and brain CoA; 24 h", "value": 58, "unit": "%"},
      {"measurement": "Liver CoA (%) +4 AMU", "setting": "liver and brain CoA; 24 h, listed as isotopically labeled fosmetpantotenate", "value": 8, "unit": "%"},
      {"measurement": "incorporation of fosmetpantotenate-derived PPA in brain CoA", "setting": "liver and brain CoA; 500 mg/kg single oral administration", "value": "not observed"}
    ]},
    {"smiles": "N[C@@H](Cc1ccc(O)c(O)c1)C(=O)O", "note": "[L-DOPA, S-3,4-dihydroxyphenylalanine, reference compound]", "values": [
      {"measurement": "blood-brain barrier permeability classification", "setting": "[1]", "value": "moderate permeability range"},
      {"measurement": "Papp at 1 h", "setting": "in vitro", "value": "5.8 ± 1.9", "unit": "×10⁻⁶ cm/s"}
    ]},
    {"smiles": "OC[C@@H](O)[C@@H](O)[C@H](O)[C@H](O)CO", "note": "[Mannitol, reference compound]", "values": [
      {"measurement": "blood-brain barrier permeability classification", "setting": "[1]", "value": "low end of permeability range"},
      {"measurement": "Papp at 1 h", "setting": "in vitro", "value": "2.2 ± 0.7", "unit": "×10⁻⁶ cm/s"}
    ]}
  ]
}
